Test results taken from a melting point compilation (Tetko et al.; mined from patent text by program, amines drawn as free bases though some values may be those of a salt).

Work on CC(C)CC(NC(=O)C(Cc1c[nH]cn1)NC(=O)C(CC(=O)c1ccccc1)Cc1cccc2ccccc12)C(O)C(=O)OC(C)C (configuration not stated) yielded a melting point of 108 to 118 °C.
Compound COc1ccc(N2CCOCC2)c2sc(NC(=O)N(C)C3CCCC3)nc12 has a melting point of 110 to 125 °C.
CC(=O)c1cccc2ccc(CC#N)cc12 gave a melting point of 88 °C.
For COc1cccc(-c2ccc3c(c2)C(C)(C)OC(=S)N3)c1, the melting point was 142 to 143 °C.
With CN1C(=O)N(c2ccc(Cl)cc2)S(=O)(=O)c2ccc(O)cc21 the melting point was over 250 °C.
In the case of COC1C2=C3C(=CN1OC)OCCC3CC(C(N)=O)C2 (configuration not stated), the melting point is reported as 224 to 226 °C.
In the case of CC(=O)Cc1ccc(OCc2ccc(Cl)cc2)cc1, the melting point is reported as 76 to 80 °C.
Compound CC(C)(C)CC(=O)Nc1ccc2oc3c(c2c1)CCC3 has a melting point of 196 to 197 °C.
With COc1ccc(Nc2nc(Cl)nc(Cl)n2)cc1F the melting point was 134 °C.
O=C1c2cccc(NC(=S)Nc3ccccn3)c2C2CCCCN12 (configuration not stated) showed a melting point of 195 °C.
Compound CC(C)(C)OC(=O)N1CCN(Cc2ccc3c(c2)-c2[nH]nc(-c4ccsc4)c2C3)CC1 has a melting point of 218 to 220 °C.
Cc1cc(NC(=O)C2=C(O)CN(C)S(=O)(=O)N2C)no1 gave a melting point of 189 to 192 °C.
Compound COc1ccc(Cl)cc1-c1n[nH]c(=O)cc1NN has a melting point of 285 to 290 °C.
For CCOc1ccc2c(c1)n(C1CCOCC1)c(=O)n2S(=O)(=O)c1ccc(C(=O)O)cc1OC, the melting point was 255 °C.
CCc1nc([N+](=O)[O-])c(CBr)n1C gave a melting point of 91 to 93 °C.
Compound CCOC(=O)C1Cc2c(n(C)c3ccc(OCc4ccccc4)cc23)C1 (configuration not stated) has a melting point of 90 to 95 °C.
Compound COc1ccc(/C=C/C(=O)N2CCc3ccccc32)cc1OC has a melting point of 118 to 120 °C.
Compound CN1C(=O)C(C)(C)N=C(c2ccccc2Cl)c2c1ccc(N)c2Br has a melting point of 188 to 189 °C.
CCCCCCCCCCCCCCOc1c(CBr)cccc1CBr showed a melting point of 59.3 to 59.8 °C.
With c1ccc(Cn2ncc3c2Cc2cn[nH]c2-3)cc1 the melting point was 61 to 72 °C.
Compound CSc1nc2ccccc2n1C1CCN(CCCC(=O)c2ccc(F)cc2)CC1 has a melting point of 98 to 98.5 °C.
CCOC(=O)c1[nH]cc(-c2ccc(F)cc2)c1-c1ccc(F)cc1 gave a melting point of 157 to 159 °C.
For C=CC[C@@H](N[S@](=O)C(C)(C)C)c1cc(F)cc(C#N)c1, the melting point was 38 to 40 °C.
Clc1cccc2c(CN3CC=C(/C=C/c4ccccc4)CC3)n[nH]c12 gave a melting point of 223 to 224 °C.
For CCNC(=O)c1c(Br)ccc(OC)c1Cl, the melting point was 181 to 182 °C.
For Cc1nc2cccc(S(=O)(=O)n3c(CCC(=O)O)cc4cc(Cl)ccc43)c2s1, the melting point was 188 to 189 °C.
CC(=O)COC1CC2C3CCC4=CC(=O)CCC4(C)C3(F)C(O)CC2(C)C1(O)C(=O)CO (configuration not stated) showed a melting point of 203 to 208 °C.
With COCCN(C)c1nnc(-c2ccc(-c3ccccc3)nc2)n1-c1ccccc1C#N the melting point was 148 to 149 °C.
With O=[N+]([O-])c1cc(CBr)n(CCBr)n1 the melting point was 95 to 97 °C.
CN1C(=O)[C@H](NC(=O)C2CCC3(CC2)CCN(C(=O)OC(C)(C)C)CC3)N=C(c2ccccc2)c2ccccc21 gave a melting point of 135 to 138 °C.
Compound Cc1nc(-c2c(F)cccc2Cl)nn1-c1ccc(COc2ncc(C(F)(F)F)cc2Cl)cc1 has a melting point of 96 to 97 °C.
For N#Cc1ccc(N2CCN(c3ccc(O)cc3)CC2)cc1, the melting point was 258 to 262 °C.
Work on NC(=O)OC1CCN(C(=O)Cn2c(=O)sc3ccc(Cl)cc32)CC1 yielded a melting point of 210 to 212 °C.
For CC(=O)c1c(C)nc(C)c(C(=O)OCCC#N)c1-c1cccc([N+](=O)[O-])c1, the melting point was 85 °C.
With O=C(O)CS(=O)(=O)c1ccc2c(-c3ccc(Cl)cc3)noc2c1Cl the melting point was 212 to 213 °C.
With Cc1ccc(C(=O)Nc2ccc3c(c2NC(=O)c2ccc(C)cc2)C(=O)c2ccccc2C3=O)cc1 the melting point was 227 to 229 °C.
For O=c1cccc2c([N+](=O)[O-])cccc2n1, the melting point was 139 to 141 °C.
Compound O=C(Nc1ccc2[nH]ncc2c1)O[C@@H](c1cc(F)cc(Cl)c1)[C@H]1CCCCN1 has a melting point of 220 °C.
Cn1c(=O)c2c(nc(Cl)n2Cc2ccccc2I)n(C)c1=O gave a melting point of 178 °C.
O=c1[nH]c2ccc(Cl)cc2n1CCN1CCCCC1 gave a melting point of 156 to 158 °C.
COC(=O)c1ccc(Cn2c3c(c4cc(F)cc(F)c42)CCCC3CC(=O)O)cc1 (configuration not stated) gave a melting point of 169 to 170 °C.
CCC(=O)Nc1cccc(-c2ccc(=O)[nH]n2)c1 showed a melting point of 229 to 230 °C.
Compound Cc1nn(CC(F)(F)F)c(-c2ccc(F)cc2)c1-c1ccc2c(c1)NC(=O)CO2 has a melting point of 174 °C.
CC(=O)NCC1CN(c2ccc(N3CCN(c4nncs4)CC3)c(F)c2)C(=O)O1 (configuration not stated) showed a melting point of 206 to 208 °C.
In the case of CCc1ccccc1-c1nc(-c2ccc(Cl)cc2)n[nH]1, the melting point is reported as 118 to 120 °C.
For O=c1[nH]c(NCCCN(Cc2ccccc2)c2ccccn2)ncc1Cc1ccc(Cl)cc1, the melting point was 80 to 86 °C.
In the case of COCCN1CCN(CCc2ccc(Nc3ncc4c(n3)-c3ccccc3C(c3ccc(Cl)c(Cl)c3)C4)cc2)CC1 (configuration not stated), the melting point is reported as 121 to 122 °C.
For CON=C1CCC(C)(C)c2cc(C)c(-c3cc(C=C4SC(=O)NC4=O)ccc3Cl)cc21, the melting point was 252 to 254 °C.
With Nc1ccc(Br)n2nc(SCc3ccccc3)nc12 the melting point was 125 to 126 °C.
CC(C)(C)CC(C)(C)NSc1nc2ccccc2s1 showed a melting point of 104 °C.
O=C(O)C1=Cc2cc(F)c(N3CCC4(CC3)OCCCO4)nc2N(c2ccc(F)cc2F)C1 showed a melting point of 177 to 178 °C.
O=C1Oc2cc(O)ccc2CN1C1CCCCC1 gave a melting point of 193 to 196 °C.
CC(=O)SCC(=Cc1ccc(Oc2ccccc2)cc1)C(=O)NCCC(=O)OCc1ccccc1 gave a melting point of 79 °C.
Cc1nn(-c2ccccn2)c2nc3cc(F)c(F)cc3c(Cl)c12 gave a melting point of 175 to 176 °C.
With CCOC(=O)C(C)(C)Oc1ccc(-c2ccc(CCNC(=O)c3ccc(F)cc3)cc2)cc1 the melting point was 135 °C.
In the case of O=C(O)/C=C/C(=O)/C=C/c1ccc(C(F)(F)F)cc1, the melting point is reported as 192 to 195 °C.
In the case of COC(=O)c1c(Cc2ccc(S(=O)(=O)N3CCN(C)CC3)cc2)c(=O)c2ccccc2n1-c1ccccc1, the melting point is reported as 210 to 212 °C.
For CCCC(CCC)C(=O)NCC(=O)NCCCCCCNC(=O)n1cc(F)c(=O)[nH]c1=O, the melting point was 111 to 112 °C.
With C=CCN(CC=C)c1nc(NC(=O)c2ccccc2)n2oc(=O)nc2n1 the melting point was 174 to 175 °C.
In the case of Cc1c(Cl)cc(C2=NNC(=O)CC2O)cc1Cl (configuration not stated), the melting point is reported as 253 to 256 °C.
CS(=O)(=O)c1ccc(-c2cnn(-c3ccccc3[N+](=O)[O-])c(=O)c2-c2ccc(F)cc2)cc1 gave a melting point of 236 to 239 °C.
Work on CCOC(=O)c1c(C(F)(F)F)nc(C(F)(F)Cl)c(C(=O)OC)c1N(CC)CC yielded a melting point of 31.5 to 33 °C.
In the case of Cc1c(Cl)nc2sc(SCc3ccccc3)nn2c1=O, the melting point is reported as 102 to 104 °C.
In the case of COc1ccc(-c2cc(=O)n(Cc3ccc(F)cc3)nc2-c2ccc(OC)cc2)cc1, the melting point is reported as 132 to 133 °C.
CCSc1nnc(-c2ccccc2)n1Cc1ccc(N)cc1 showed a melting point of 126 to 127 °C.
With COc1ccc(OCCCCCN2CCC(CNC(=O)c3cc(Cl)c(N)cc3OC)CC2)cc1OC the melting point was 85 to 87 °C.
For CC(C)n1cc(C(=O)O)c2ccc(C(F)(F)F)cc21, the melting point was 177 to 178 °C.
Compound Cc1nc2nccc(-c3cccc(C(F)(F)F)c3)n2n1 has a melting point of 153 to 154 °C.
CCOC(=O)c1cccc(NC(=O)c2cc(-c3ccc(F)cc3)oc2C)c1 gave a melting point of 171 to 172 °C.
With Cc1cc2c([C@@H]3C[C@H]3CNC(=O)C(F)(F)F)cccn2n1 (relative stereo) the melting point was 136 to 138 °C.
Work on COc1ccc(C)cc1NC(=O)Nc1ccc(N2CCN(C(=O)C3CC4CCC3C4)CC2)cc1 (configuration not stated) yielded a melting point of 126 to 128 °C.
COc1cc(OC)nc(NC(=O)N=NS(=O)(=O)C2OCCN2C)n1 (configuration not stated) gave a melting point of 174 to 175 °C.
With N=C1NN(c2ccccc2)CC1CN1CCOCC1 (configuration not stated) the melting point was 204 to 205 °C.
In the case of CCOc1nc(=O)n(C(=O)NC)s1, the melting point is reported as 152 °C.
Compound CP(=O)(O)CNC(=O)OCc1ccccc1 has a melting point of 118 to 119 °C.
CCN(CC)c1cc(-c2ccco2)ncn1 gave a melting point of 179 to 180 °C.
For CCCc1c(C(=O)CC)c2ccc(C(N)=O)cc2n1Cc1ccccc1Cl, the melting point was 151 to 152 °C.
Work on CC(c1oc2ccccc2c(=O)c1-c1cccc(F)c1)n1nc(-c2cccc(N(C)C)c2)c2c(N)ncnc21 (configuration not stated) yielded a melting point of 218 to 220 °C.
Work on O=c1c2cc(O)ccc2oc2c(CO)ccc(NCCN3CCCC3)c12 yielded a melting point of 186 to 190 °C.
For CC(C)CC(NC(=O)C(Cc1c[nH]cn1)NC(=O)C(CC(=O)NCCc1ccccc1)Cc1cccc2ccccc12)C(O)C(=O)OCc1ccccc1 (mixture of isomers), the melting point was 81 to 86 °C.
With O=C(CCc1ccccc1[N+](=O)[O-])c1c(O)c2cccnc2n(-c2ccccc2)c1=O the melting point was 238 to 240 °C.
For C[C@H](c1ccccc1)N1C(=O)N(C(=O)OC(C)(C)C)[C@@H]2C(=O)OC[C@@H]21, the melting point was 177 to 178 °C.
Compound Oc1ccc(-c2cccc3sc4ccccc4c23)cc1 has a melting point of 117 to 119 °C.
For O=C(Cc1ccccc1O)N1C[C@@H]2SCCC(c3ccccc3)(c3ccccc3)[C@@H]2C1 (racemic), the melting point was 248 °C.
For [N-]=[N+]=NC1(c2ccccc2Cl)C(=O)Nc2ccc(Cl)cc21 (configuration not stated), the melting point was 178 °C.
Work on CC(=O)Nc1ccc(S(=O)(=O)NCCN2[C@H](C)Cc3ccsc3[C@@H]2C)cc1 (relative stereo) yielded a melting point of 142 to 144 °C.
For CC(=O)c1cnc(O)c(Cl)c1, the melting point was 188 to 189 °C.
COc1cccc(CN2CCN(C)CC2C2=NCCN2)c1 (configuration not stated) gave a melting point of 78 to 80 °C.
Work on COc1ccc([N+](=O)[O-])cc1C=C1COc2ccc(OCc3ccccc3)cc2C1=O yielded a melting point of 156 to 157 °C.
With C=C(C)C(=O)NCCCCCC(=O)Nc1cc(Cl)c(C)c(Cl)c1O the melting point was 111 to 115 °C.
CC(C)(C)C(O)C(C(Sc1ccccc1)c1ccc(F)cc1)n1cncn1 (configuration not stated) gave a melting point of 171 °C.
Compound O=C(C=Cc1cccnc1)NCCCCC1CCN(C(=O)c2ccccc2)CC1 has a melting point of 100 to 102 °C.
Compound N#Cc1ccccc1Cn1cc(-c2ccnc(Cl)c2)n(-c2ccc(F)cc2)c1=O has a melting point of 109 °C.
For CCOC(=O)NC1(c2cccs2)CCC2(CC1)OCCO2, the melting point was 113 to 117 °C.
For Clc1ccc(-c2coc(CCCI)n2)cc1, the melting point was 49 to 50 °C.
COCOc1ccccc1-c1cc(-c2ccc(OC)c(C(=O)O)c2)c(C#N)c(NC(=O)c2cccs2)n1 gave a melting point of 187 to 189 °C.
CN(C)S(=O)(=O)c1cc(-c2csc(=Nc3ccccc3)n2C2CCCCC2)ccc1Cl showed a melting point of 148 °C.
